Assay [1] has as its target T1, sigma-2 receptors (Rattus norvegicus, UniProt Q5U3Y7).
T1 sequence (Q5U3Y7 1-176): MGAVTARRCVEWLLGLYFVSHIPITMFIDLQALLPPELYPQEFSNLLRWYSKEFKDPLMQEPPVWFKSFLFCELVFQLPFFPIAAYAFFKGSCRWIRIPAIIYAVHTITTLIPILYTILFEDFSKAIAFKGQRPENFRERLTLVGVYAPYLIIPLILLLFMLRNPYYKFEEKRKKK
Kind of assay: sigma-2 receptor radioligand binding.

Assay [2] concerns σ-2. The following applies: quantity type not given; cited from earlier work.
In assay [3] the test system is σ-1. As to conditions: quantity type not given; cited from earlier work.

Counter-ions that a name gives are not always drawn.

With `Fc1ccc(N2CCN(CCCCn3ccc4ccccc43)CC2)cc1` [4b, 1-(4-(4-(4-Fluorophenyl)piperazin-1-yl)butyl)indole oxalate], the σ-1/σ-2 selectivity ratio in assay [1] was determined as 5.

For the compound `COc1cc2c(cc1OC)CN(CCCCNC(=O)c1cc(Br)cc(OC)c1OC)CC2` [5-bromo-N-(4-(6,7-dimethoxy-3,4-dihydroisoquinolin-2(1H)-yl)butyl)-2,3-dimethoxybenzamide], the σ-2 affinity in assay [2] is listed as 8.2 nM. Further, the σ-1 affinity in assay [3] is recorded as 12,900 nM.

On to `Fc1ccc(-n2cc(CCCCN3CCC4(CC3)OCc3ccccc34)c3ccccc32)cc1` [Siramesine], for which the σ-1 affinity in assay [3] was 17 nM.

These data come from PMC3272488 (European Journal of Medicinal Chemistry, 2011).
